Laboratory results from patent US20240279635A1, “BIOFILM ACTIVITY ADJUSTING METHOD” (NATIONAL INSTITUTE FOR MATERIALS SCIENCE, priority 2021, published 2024).

Test system: Klebsiella pneumoniae
Test: Electric current generation by Klebsiella pneumoniae with electron mediators in a three-electrode electrochemical cell (time-current curve, FIG. 4)
Assay type: cell-based
Conditions: 100 μM electron mediator, 10 mM glucose, working electrode +0.2 V (vs. Ag/AgCl), 37° C., anaerobic condition, 15 hours, carbon electrodes
Experimental: The experiment was performed using a three-electrode electrochemical cell having carbon electrodes as the working electrode and counter electrode, and a silver/silver chloride electrode as the reference electrode.
First, as an electron source, a liquid culture medium (defined medium) containing 10 mM of glucose and 100 μM of electron mediator (see below) was added to the cell described above, to which Klebsiella pneumoniae (optical density (OD): 0.1) was inoculated, then an electric potential of the working electrode was set to +0.2 V (vs. Ag/AgCl) at 37° C., and the culture medium was incubated under anaerobic condition for 15 hours.
• HNQ: 2-hydroxy-1,4-naphthoquinone • 1-Phenazine: 1-hydroxyphenazine • AQDS: anthraquinone-1,5-disulfonate • AQS: anthraquinone-1-sulfonate • FMN: flavin mono nucleotide • RF: ribobflavin • W/O mediator: no electron mediator
FIG. 4 is a time-current curve.

SMILES: O=C1C=C(O)C(=O)c2ccccc21 [HNQ, 2-hydroxy-1,4-naphthoquinone]
- generated electric current (time-current curve): a large electric current could be generated
